{
  "source": "patent US20110319415A1",
  "about": "“Susceptibility to HSP90-Inhibitors” (Universit+e,uml a+ee t zu K+e,uml o+ee ln, priority 2008, published 2011)",
  "key": {"[1]": {"system": "NSCLC cell lines", "test": "High-throughput cell-based screening of the NSCLC cell line collection (CellTiter-Glo viability)", "conditions": "for sensitivity pattern (cytotoxic activity) across the NSCLC cell line collection: cellular viability after 96 h, cellular ATP content, entire NSCLC cell line panel"}, "[2]": {"system": "KRAS-driven lung adenocarcinomas", "procedure": "FIG. 20. […] Note that the images were taken from the earlier publications for illustration purposes only.\nTransgenic mice (as described in FIG. 20) with KRAS-mutant lung tumors were treated with the HSP90 inhibitor 17-DMAG for seven days. Tumor volumes were determined by magnetic resonance imaging and shown as transthoracic images (left panels), quantified and changes in tumor volume relative to the pre-therapy images are given in percent.\nThese mice carry a Lox-Stop-Lox-KRAS_G12D gene. […] Mice received 20 mg/kg/d of 17-DMAG, a geldanamycin HSP90 inhibitor with almost identical structure as 17-AAG."}, "[3]": {"system": "c-RAF", "test": "Immunoblot of lysates of cell lines treated with 17-AAG: c-RAF", "type": "cell-based, human", "conditions": "sensitive (KRAS-mutant) cell lines", "text": "(§1) (A) Distribution of KRAS mutations (black columns) across the 17-AAG-sensitivity profile (IC50 values) in the NSCLC cell line collection and the NCI-60 cell line panel. Incidence of KRAS mutation and sensitivity towards 17-AAG is represented by a Fisher's exact test for both datasets. (B) Lysates of a KRAS wildtype (wt) and a KRAS mutated (G12C) cell line treated with 17AAG at different concentrations were immunoblotted for c-RAF, KRAS, cyclinD1 and Akt. (C) Distribution of copy number gain at 1q21.3 (black columns) across the UO126-sensitivity profile (IC50 values) in the NSCLC cell line collection and the hypothemycin-sensitivity profile in the NCI-60 cell line panel. Incidence of amplification of 1q21.3 mutation and sensitivity towards 17-AAG is represented by a Fisher's exact test for both datasets. […]\n(§2) Whole-cell lysates were prepared in NP40 lysis buffer (50 mmol/L Tris-HCl (pH 7.4). 150 mmol/L NaCl, 1% NP40) supplemented with protease and phosphatase inhibitor I and II cocktails (www.merckbiosciences.co.uk/g.asp?f=CBC/home.html) and clarified by centrifugation. Protein concentrations were determined using the Bicinchoninic Acid Protein Assay kit (www.piercenet.com) and equivalent amounts (40-60 μg) were subjected to SDS-PAGE on 12% gels, except where indicated. […]"}, "[4]": {"system": "mutant EGFR bound to Hsp90", "test": "Depletion of mutant EGFR from the Hsp90 complex", "type": "cell-based", "conditions": "same conditions as for KRAS"}, "[5]": {"system": "KRAS", "test": "Immunoblot of lysates of cell lines treated with 17-AAG: KRAS", "type": "cell-based, human", "conditions": "sensitive (KRAS-mutant) cell lines", "text": "as §1, §2"}, "[6]": {"system": "Akt", "test": "Immunoblot of lysates of cell lines treated with 17-AAG: Akt", "type": "cell-based, human", "conditions": "sensitive (KRAS-mutant) cell lines", "text": "as §1, §2"}, "[7]": {"system": "mutant KRAS bound to Hsp90", "test": "Depletion of mutant KRAS from the Hsp90 complex", "type": "cell-based", "conditions": "treatment with HSP90 inhibitor"}, "[8]": {"system": "Ba/F3 cells expressing erlotinib-sensitizing mutations of EGFR together with T790M", "test": "Growth inhibition / cytotoxicity in Ba/F3 cells expressing mutant EGFR with T790M", "type": "cell-based, Murine", "conditions": "Ba/F3 with sensitizing EGFR mutation plus T790M, 96 h, cellular ATP content", "procedure": "Compounds were then added in serial dilutions.\nEGFR_cDNA was subcloned into pBabe-hygro vectors."}},
  "note": "Several values for one entry are separate records, joined by “and”; a condition that tells them apart may be missing. Equal values may be shown once. Entries after “also recorded” stand apart in the source; their conditions may differ.",
  "data": [
    {"smiles": "Cc1cc(Nc2cc(N3CCN(C)CC3)nc(Sc3ccc(NC(=O)C4CC4)cc3)n2)n[nH]1", "note": "[VX-680]", "values": [
      {"measurement": "sensitivity pattern (cytotoxic activity) across the NSCLC cell line collection", "setting": "[1]", "value": "pronounced cytotoxic activity in a small subset of cell lines"}
    ]},
    {"smiles": "N#CC(=C(/N)Sc1ccccc1N)/C(C#N)=C(\\N)Sc1ccccc1N", "note": "[U0126]", "values": [
      {"measurement": "sensitivity pattern (cytotoxic activity) across the NSCLC cell line collection", "setting": "[1]", "value": "enhanced activity in a subset of the lung cancer cell line collection"}
    ]},
    {"smiles": "CO[C@H]1/C=C\\C=C(/C)C(=O)NC2=CC(=O)C(NCCN(C)C)=C(C[C@@H](C)C[C@H](OC)[C@H](O)[C@@H](C)/C=C(\\C)[C@@H]1OC(N)=O)C2=O", "note": "[17-DMAG, 17-NN-Dimethyl Ethylene Diamine-Geldanamycin]", "values": [
      {"measurement": "biological effects in the cell lines compared with 17-AAG", "setting": "[1]; in vitro, data not shown", "value": "identical"},
      {"measurement": "tumor burden of the third mouse", "setting": "[2]; 20 mg/kg/d, one week of treatment, MRI imaging", "value": "slight but insignificant reduction of tumor burden"},
      {"measurement": "mice showing tumor regression", "setting": "[2]; 20 mg/kg/d, one week of treatment, MRI imaging, lox-stop-lox KRAS_G12D mice", "value": "2 of 3 and 3 of 4"},
      {"measurement": "duration of responses", "setting": "[2]; lung tumor-bearing lox-stop-lox KRAS_G12D mice, one-week treatment", "value": "transient"}
    ]},
    {"smiles": "C#Cc1cccc(Nc2ncnc3cc(OCCOC)c(OCCOC)cc23)c1", "note": "[erlotinib]", "values": [
      {"measurement": "sensitivity pattern (cytotoxic activity) across the NSCLC cell line collection", "setting": "[1]", "value": "pronounced cytotoxic activity in a small subset of cell lines"}
    ]},
    {"smiles": "C=CCNC1=C2C[C@@H](C)C[C@H](OC)[C@H](O)[C@@H](C)/C=C(\\C)[C@H](OC(N)=O)[C@@H](OC)/C=C\\C=C(/C)C(=O)NC(=CC1=O)C2=O", "note": "[17-AAG, [(3S,5S,6R,7S,8E,10R,11S,12E,14E)-21-(allylamino)-6-hydroxy-5,11-dimethoxy-3,7,9,15-tetramethyl-16,20,22-trioxo-17-azabicyclo[16.3.1]docosa-8,12,14,18,21-pentaen-10-yl]carbamate]", "values": [
      {"measurement": "c-RAF protein levels after treatment", "setting": "[3]", "value": "modulated; also recorded: reduced protein levels"},
      {"measurement": "depletion of mutant EGFR from the Hsp90 complex", "setting": "[4]", "value": "depleted from the complex"},
      {"measurement": "sensitivity pattern (cytotoxic activity) across the NSCLC cell line collection", "setting": "[1]", "value": "active in most of the cell lines with only a minority being resistant"},
      {"measurement": "KRAS protein levels after treatment", "setting": "[5]", "value": "not modulated"},
      {"measurement": "Akt protein levels after treatment", "setting": "[6]", "value": "modulated; also recorded: reduced protein levels"},
      {"measurement": "depletion of mutant KRAS from the Hsp90 complex", "setting": "[7]", "value": "not depleted from the complex"}
    ]},
    {"smiles": "COc1cc2c(Nc3ccc(Br)cc3F)ncnc2cc1OCC1CCN(C)CC1", "note": "[vandetanib]", "values": [
      {"measurement": "sensitivity pattern (cytotoxic activity) across the NSCLC cell line collection", "setting": "[1]", "value": "pronounced cytotoxic activity in a small subset of cell lines"},
      {"measurement": "activity / cytotoxicity in Ba/F3 cells expressing the T790M resistance allele", "setting": "[8]", "value": "completely resistant"},
      {"measurement": "activity / cytotoxicity in Ba/F3 cells expressing the T790M resistance allele", "setting": "[8]; listed as Vandatinib", "value": "lack of activity"}
    ]}
  ]
}
